This note sets out measurements from patent USRE43343E1, “Inhibitors of histone deacetylase” (Methylgene Inc., priority 1999, dated 2012).

A word on the IC50: it is the midpoint of a concentration-inhibition curve.

The test system of one assay is histone deacetylase in nuclear extracts from H446 cells (pooled HDACs). Briefly: Histone deacetylase inhibition, H446 nuclear extracts (pooled HDACs). The class given is biochemical, human. Particulars: @ 20 μM. As for the experimental part:
(§1) The reaction was stopped by adding acetic acid (0.04 M, final concentration) and HCl (250 mM, final concentration). The mixture was extracted with ethyl acetate and the released [^3H]-acetic acid was quantified by scintillation counting. For inhibition studies, the enzyme was preincubated with compounds at 4° C. for 30 minutes prior to initiation of the enzymatic assay. IC50 values for HDAC enzyme inhibitors were determined by performing dose response curves with individual compounds and determining the concentration of inhibitor producing fifty percent of the maximal inhibition.
Consider `Nc1ccccc1NC(=O)/C=C/c1ccc(CC(=O)c2ccccc2)o1` [Compound 139], for which the “pooled HDACs percent inhibition at the specified concentration” value (“pooled HDACs percent inhibition” below) is given as 44% @ 20 μM.
`Nc1ccccc1NC(=O)CCc1ccc(CC(=O)c2ccccc2)o1` [Compound 144]: the “pooled HDACs percent inhibition” value is recorded as 6% @ 20 μM.
`O=C(NO)c1ccc(CCCC(O)c2ccc3ccccc3c2)cc1` (stereo not drawn) [Compound 149]: the “pooled HDACs percent inhibition” value came out at 8% @ 20 μM.
Still for that read-out and setting: to `O=C(CCCc1ccc(CCCc2ccccc2)cc1)NO` [Compound 155] belongs 39% @ 20 μM; to `Nc1ccccc1NC(=O)/C=C/C#Cc1cccc(NS(=O)(=O)c2ccccc2)c1` [Compound 168], 0% @ 20 μM.
`CN(C)c1ccc(CCc2ccccc2C(=O)NO)cc1` [Compound 173]: the “pooled HDACs percent inhibition” value was determined as 35% @ 20 μM.
As for `O=C(CCC1CCC(CC(=O)c2ccccc2)O1)NO` (stereo not drawn) [Compound 176], the “pooled HDACs percent inhibition” value is 20% @ 20 μM.
Still for that read-out and setting: then `O=C(CCCc1ccc(C(=O)NO)cc1)c1ccccc1` [Compound 177], with 10% @ 20 μM; and `Nc1ccccc1NC(=O)c1ccc(CC(=O)c2ccccc2)o1` [Compound 178], with 2% @ 20 μM.

Still in this assay, the particulars now being: [3H]-acetylated histone substrate.
As for `O=C(CCc1ccc(CCCCc2ccccc2)cc1)NO` [Compound 154], half-maximal inhibition (IC50) was put at 2000 nM.
On to `O=C(Cc1ccc(CCCc2ccccc2)cc1)NO` [Compound 175], for which the IC50 is above 20000 nM.

For another assay, the target named is T1, recombinant human HDAC-1 enzyme (rHDAC-1) (Homo sapiens, UniProt Q13547).
T1 construct: made in house; host or cells: Baculovirus insect cell expression system
T1 sequence (Q13547 whole entry): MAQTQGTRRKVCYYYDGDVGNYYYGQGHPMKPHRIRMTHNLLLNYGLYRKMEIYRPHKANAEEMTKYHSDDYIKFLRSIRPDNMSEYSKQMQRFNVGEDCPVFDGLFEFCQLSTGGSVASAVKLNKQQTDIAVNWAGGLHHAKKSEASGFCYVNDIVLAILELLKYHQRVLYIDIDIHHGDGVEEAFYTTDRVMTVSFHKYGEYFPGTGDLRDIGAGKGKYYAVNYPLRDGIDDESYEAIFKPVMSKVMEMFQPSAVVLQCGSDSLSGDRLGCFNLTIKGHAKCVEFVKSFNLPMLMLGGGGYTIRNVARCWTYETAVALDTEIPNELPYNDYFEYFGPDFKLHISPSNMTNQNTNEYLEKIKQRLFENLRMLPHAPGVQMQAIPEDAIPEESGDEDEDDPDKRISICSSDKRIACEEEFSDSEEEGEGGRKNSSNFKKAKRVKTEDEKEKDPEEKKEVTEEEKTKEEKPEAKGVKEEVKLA
Put plainly: Histone deacetylase inhibition, recombinant human HDAC-1. The class given is biochemical. Particulars: cloned recombinant human HDAC-1 from Baculovirus insect cell expression system. As for the experimental part: as §1
On to `COc1ccc(NS(=O)(=O)c2ccc(/C=C/C(=O)Nc3ccccc3N)cc2)cc1OC` [Compound 118], for which the IC50 was determined as 2300 nM.
`COc1ccc(S(=O)(=O)Nc2ccc(CCC(=O)Nc3ccccc3N)cc2)cc1OC` [Compound 121]: the IC50 is 23000 nM.
On to `COc1ccc(S(=O)(=O)Nc2ccc(/C=C/C(=O)Nc3ccccc3N)cc2)cc1` [Compound 122], for which the IC50 is 2300 nM.
On to `O=C(C#Cc1ccc(NS(=O)(=O)c2ccc(-c3ccccc3)cc2)cc1)NO` [Compound 128], for which the IC50 came to 300 nM.
The same measure, in the same setting: to `O=C(/C=C/c1ccc(CC(O)c2ccccc2)o1)NO` (stereo not drawn) [Compound 136] belongs 500 nM; to `Nc1ccccc1NC(=O)CCc1ccc(CC(=O)c2ccccc2)o1` [Compound 144], 6900 nM; to `O=C(/C=C/c1ccc(NC(=O)Nc2cccc3ccccc23)cc1)NO` [Compound 146], 910 nM.
Still for that read-out and setting: to `COc1ccc(NC(=O)Nc2ccc(/C=C/C(=O)NO)cc2)cc1OC` [Compound 147] belongs 480 nM; to `O=C(NO)c1ccc(CCCC(O)c2ccc3ccccc3c2)cc1` (stereo not drawn) [Compound 149], 100 nM; to `O=C(NO)c1ccc(/C=C/c2ccccc2)cc1` [Compound 151], 2300 nM.
With `O=C(NO)c1ccc(CCCCCc2ccccc2)cc1` [Compound 153], the IC50 was 4800 nM.
Turning to `O=C(CCc1ccc(CCCCc2ccccc2)cc1)NO` [Compound 154], the IC50 is 900 nM.
Same read-out and setting: to `O=C(CCCc1ccc(CCCCc2ccccc2)cc1)NO` [Compound 156] belongs 750 nM; to `O=C(CCc1ccc(CCc2ccccc2)cc1)NO` [Compound 157], 2400 nM.
On to `Cc1ccc(NS(=O)(=O)c2ccc(/C=C/C(=O)Nc3ccccc3N)cc2)cc1` [Compound 159], for which the IC50 was determined as 1500 nM.
With `Nc1ccccc1NC(=O)/C=C/c1ccc(S(=O)(=O)Nc2ccc(-c3ccccc3)cc2)cc1` [Compound 160], the IC50 was found to be 1200 nM.
For the molecule `Cc1ccc(NS(=O)(=O)c2ccc(/C=C/C(=O)NO)cc2)cc1` [Compound 161], the IC50 worked out at 50 nM.
In the case of `COc1ccc(NS(=O)(=O)c2ccc(/C=C/C(=O)Nc3nnc(S)s3)cc2)cc1OC` [Compound 164], the IC50 came out at 5000 nM.
Regarding `O=C(/C=C/c1ccc(NS(=O)(=O)c2ccc(-c3ccccc3)cc2)cc1)Nc1nnc(S)s1` [Compound 165], the IC50 turned out to be 2000 nM.
